Reference: the NIST ThermoML archive (doi:10.1016/j.fluid.2006.09.007)
Numbers after ± are expanded uncertainties.

Conditions: Liquid, Ebulliometric method (Recirculating still)

vapor or sublimation pressure (315 K)	vapor or sublimation pressure (318 K)	vapor or sublimation pressure (321 K)	vapor or sublimation pressure (324 K)	vapor or sublimation pressure (327 K)	vapor or sublimation pressure (330 K)	vapor or sublimation pressure (333 K)	vapor or sublimation pressure (336 K)	vapor or sublimation pressure (339 K)	vapor or sublimation pressure (342 K)	vapor or sublimation pressure (345 K)	Compound	vapor or sublimation pressure (314 K)	vapor or sublimation pressure (317 K)	vapor or sublimation pressure (320 K)	vapor or sublimation pressure (323 K)	vapor or sublimation pressure (326 K)	vapor or sublimation pressure (329 K)	vapor or sublimation pressure (332 K)	vapor or sublimation pressure (335 K)	vapor or sublimation pressure (338 K)
											CC(C)=O [acetone]	57.96 ± 0.47 kPa	64.95 ± 0.49 kPa	72.6 ± 0.54 kPa	80.96 ± 0.58 kPa	90.08 ± 0.64 kPa	100 ± 0.69 kPa	110.78 ± 0.75 kPa	122.47 ± 0.81 kPa	135.11 ± 0.85 kPa
38.33 ± 0.38 kPa	43.97 ± 0.4 kPa	50.29 ± 0.45 kPa	57.36 ± 0.5 kPa	65.25 ± 0.56 kPa	74.02 ± 0.62 kPa	83.76 ± 0.68 kPa	94.55 ± 0.76 kPa	106.47 ± 0.84 kPa	119.61 ± 0.92 kPa	134.07 ± 0.96 kPa	CO [methanol]									
